{"source": "patent US5571799A", "about": "“(2'-5') oligoadenylate analogues useful as inhibitors of host-v5.-graft response” (Basco, Ltd., priority 1994, dated 1996)", "key": {"lymphocytes": {"test_system": "lymphocytes", "experiment": "Lymphocyte blast-transformation reaction in operated rabbits", "type": "in vivo, chinchilla rabbits", "protocol": "Immunosuppression was performed by IV injection of (2'-5')A2 Ar-epoxy at a dose of 5 μg per 1.0 kg body weight at 0.1 ml of the physiologic solution daily until the conclusion of the experiment. During the first two weeks of the post-operative period, blood was taken for immunological analysis; BTR with PHA and Concanavalin A were tested.\nLymphocyte Blast-Transformation Reaction in Operated Rabbits"}, "T-helpers": {"test_system": "T-helpers", "experiment": "Immune system of monkeys: T-helpers, flow cytofluorografic analysis", "type": "in vivo, Macaque Rh. monkeys", "protocol": "The experiments were performed on 4 year-old Macaque Rh. monkeys. The levels of the principal subpopulations of T-lymphocytes, IgA, IgG, IgM and the amount of α- and γ-interferon and interleukin II after administration (2'-5')olygoadenylate and its analogies at the concentration of 50 and 25 μg/kg of the body weight was investigated.\nFLOW CYTOFLUOROGRAFIC ANALYSIS OF LYMPHOCYTE SUBSETS\nBlood samples (100 μl of whole blood) were placed into a 12×17 tube. To these cells 20 μl of purified monoclonal antibodies were added with specificity for human cytotoxic/suppressor cells anti-Leu-2a (CD8), human helper/inducer anti-Leu-3a (CD4) and FITC conjugated monoclonal antibodies with specificity for natural killer cells-anti-Leu11c (CD16) (Becton Dickinson, San Jose). After 30 minutes incubation on ice, the cells were washed once and 20 μl of goat-antimouse chain phycoerythrin (Sigma P1286) conjugate were added to the tube with anti-Leu-2a and anti-Leu-3a monoclonal antibodies.\nAfter erythrocyte lysing with FACS lysing solution (Becton Dickinson, San Jose) the cells were analyzed on FACScan flow cytometer (Becton Dickinson, San Jose) with scatter gate set on lymphocyte fraction."}, "transplanted kidney": {"test_system": "transplanted kidney", "experiment": "Kidney cross-allotransplantation in monkeys: graft function", "type": "in vivo, Macaque Rh. monkeys", "protocol": "(§1) The experiments were performed on 4 year-old Macaque Rh. monkeys. Each cohort consisted of 3 animals. […] The results of the experiments were evaluated clinically: by the presence or absence of urination from the ureterocutaneostoma.\nAfter intravenous anesthesia with Ketalar®, an extraperitoneal access to the left kidney was performed through layer by layer cuts to the left lumbar region. The kidney was excised from the surrounding tissues. A clamp was applied to the vessel limb; the artery, the vein and the ureter each were prepared for anastomosis separately. The kidney was excised and transferred for hypothermal conservation in Collins' solution.\nThe donor kidney was transplanted into the recipient. […] anastomosis was performed: the graft arteries and veins attached to the appropriate recipient kidney vessels through plastic tubes. The kidney having been resuscitated by in blood flow, acquired the normal color and turgor. Additional hemostasis in the wound was performed. Ureterocutaneostomy was performed, which was followed by applying layer-upon-layer sutures on the wound and its aseptic dressing.\nThe monkeys were narcotized by means of the intravenous anesthesia with Ketalar® and subjected to medial laparotomy from the xiphoid down to the pubic joint. Access to the left Kidney was made extraperitoneally. The kidney was teased from the surrounding tissues. A clamp was put on the vessel limb; the artery, the vein and the ureter were dressed separately; the kidney was cut and transferred for hypothermal conservation in Collins' solution.\nThe internal iliac artery and the external iliac vein were extracted extra-peritoneally, immobilized and prepared for anastomosis. The donor kidney was transferred to the recipient. Vessel anastomosis was performed: the graft arteries were anastomosed with the internal iliac artery according to the end-to-end method and the graft veins were anastomosed with the external iliac vein according to the end-to-side method. The kidney having been engaged in blood flow, acquired a normal color and turgor. […]"}, "[1]": {"test_system": "T-helper and T-killer cells", "experiment": "T-helper and T-killer cells in monkeys after kidney transplantation", "type": "in vivo, Macaque Rh. monkeys", "conditions": "50 μg/kg IV every 48 hours; first two post-surgical weeks", "protocol": "as §1\nDuring our experiments we have divided monkeys into two groups, three monkeys to each group. For the first group (2'-5')A2 Ar-epoxy was administered intravenously at concentration of 50 μg/kg two days before the operation and at the second, sixth, and twelfth day after the operation and then every sixth day. […] After transplantation kidney functions were restored within 10 hours.\nThe administration schedule of (2'-5')A2 Ar-epoxy was modified slightly for the second group of monkeys. The preparation was injected two days before the operation and every other day at a concentration of 50 μg/kg during the entire post-transplantation period. […] The number of T-helpers dropped correspondingly from 37% to 7%. […] During the entire postoperative period, this activity tendency continues."}}, "note": "“Also recorded” adds a separate entry of the source. Marks after values point to notes of the source that are not given here."}
{"substance": "Adenylyl (2'-5')adenylyl (2'-5')-9-(2,3-anhydro-β-D-ribofuranosyl) adenine disodium salt [(2'-5')A2 Ar-epoxy]", "values": [{"measurement": "DNA synthesis by [^3 H]-thymidine incorporated", "setting": "lymphocytes; Con A, Group 1, 2 weeks post-op., pre-op. 12.6", "value": "1.6 cpm(×10^3)"}, {"measurement": "DNA synthesis by [^3 H]-thymidine incorporated", "setting": "lymphocytes; Con A, Group 1, 48 h. post-op., pre-op. 12.6", "value": "1.6 cpm(×10^3)"}, {"measurement": "DNA synthesis by [^3 H]-thymidine incorporated", "setting": "lymphocytes; Con A, Group 2, 2 weeks post-op., pre-op. 11.0", "value": "5.0 cpm(×10^3)"}, {"measurement": "DNA synthesis by [^3 H]-thymidine incorporated", "setting": "lymphocytes; Con A, Group 2, 48 h. post-op., pre-op. 11.0", "value": "4.4 cpm(×10^3)"}, {"measurement": "DNA synthesis by [^3 H]-thymidine incorporated", "setting": "lymphocytes; PHA 10, Group 1, 2 weeks post-op., pre-op. 6.0", "value": "1.5 cpm(×10^3)"}, {"measurement": "DNA synthesis by [^3 H]-thymidine incorporated", "setting": "lymphocytes; PHA 10, Group 1, 48 h. post-op., pre-op. 6.0", "value": "0.9 cpm(×10^3)"}, {"measurement": "DNA synthesis by [^3 H]-thymidine incorporated", "setting": "lymphocytes; PHA 10, Group 2, 2 weeks post-op., pre-op. 7.0", "value": "2.1 cpm(×10^3)"}, {"measurement": "DNA synthesis by [^3 H]-thymidine incorporated", "setting": "lymphocytes; PHA 10, Group 2, 48 h. post-op., pre-op. 7.0", "value": "2.4 cpm(×10^3)"}, {"measurement": "DNA synthesis by [^3 H]-thymidine incorporated", "setting": "lymphocytes; PHA 20, Group 1, 2 weeks post-op., pre-op. 2.1", "value": "1.6 cpm(×10^3)"}, {"measurement": "DNA synthesis by [^3 H]-thymidine incorporated", "setting": "lymphocytes; PHA 20, Group 1, 48 h. post-op., pre-op. 2.1", "value": "1.2 cpm(×10^3)"}, {"measurement": "DNA synthesis by [^3 H]-thymidine incorporated", "setting": "lymphocytes; PHA 20, Group 2, 48 h. post-op., pre-op. 1.4", "value": "5.5 cpm(×10^3)"}, {"measurement": "DNA synthesis by [^3 H]-thymidine incorporated", "setting": "lymphocytes; Spontaneous, Group 1, 48 h. post-op., pre-op. 0.648", "value": "0.306 cpm(×10^3)"}, {"measurement": "DNA synthesis by [^3 H]-thymidine incorporated", "setting": "lymphocytes; Spontaneous, Group 2, 48 h. post-op., pre-op. 0.597", "value": "0.274 cpm(×10^3)"}, {"measurement": "suppression of lymphocyte blast-transformation stimulated with Con A", "setting": "lymphocytes; post-transplanted rabbits, IV 5 μg/kg", "value": "~10", "unit": "fold"}, {"measurement": "lymphocyte blast-transformation reaction, in words", "setting": "lymphocytes; two weeks following the operation", "value": "inhibition of the lymphocyte blast-transformation reaction"}, {"measurement": "T-helpers", "setting": "T-helpers; single IV 25 μg/kg, day 0 (baseline)", "value": 16, "unit": "%"}, {"measurement": "T-helpers", "setting": "T-helpers; single IV 25 μg/kg, day 1", "value": 20, "unit": "%"}, {"measurement": "T-helpers", "setting": "T-helpers; single IV 25 μg/kg, day 2", "value": 10, "unit": "%"}, {"measurement": "T-helpers", "setting": "T-helpers; single IV 25 μg/kg, day 4", "value": 4, "unit": "%"}, {"measurement": "T-helpers", "setting": "T-helpers; single IV 25 μg/kg, day 8", "value": 5.3, "unit": "%"}, {"measurement": "T-helpers", "setting": "T-helpers; single IV 25 μg/kg, day 12", "value": 7, "unit": "%"}, {"measurement": "T-helpers", "setting": "T-helpers; single IV 25 μg/kg, day 21", "value": 23, "unit": "%"}, {"measurement": "T-helpers", "setting": "T-helpers; single IV 50 μg/kg, day 0 (baseline)", "value": 30, "unit": "%"}, {"measurement": "T-helpers", "setting": "T-helpers; single IV 50 μg/kg, day 1", "value": 29, "unit": "%"}, {"measurement": "T-helpers", "setting": "T-helpers; single IV 50 μg/kg, day 2", "value": 15, "unit": "%"}, {"measurement": "T-helpers", "setting": "T-helpers; single IV 50 μg/kg, day 4", "value": 1.2, "unit": "%"}, {"measurement": "T-helpers", "setting": "T-helpers; single IV 50 μg/kg, day 8", "value": 5.0, "unit": "%"}, {"measurement": "T-helpers", "setting": "T-helpers; single IV 50 μg/kg, day 12", "value": 7.0, "unit": "%"}, {"measurement": "T-helpers", "setting": "T-helpers; single IV 50 μg/kg, day 21", "value": 30.6, "unit": "%"}, {"measurement": "prevention of transplant rejection / kidney function, in words", "setting": "transplanted kidney; 50 μg/kg IV, disodium salt", "value": "protects the transplant from rejection, and renews normal functioning of the transplanted kidney; also recorded: transplanted kidney resumes and maintains its normal functions; also recorded: effectively prevent the rejection"}, {"measurement": "time to restoration of kidney function after transplantation", "setting": "transplanted kidney; first group: 50 μg/kg IV 2 days pre-op., days 2, 6, 12, then every sixth day", "value": "≤ 10", "unit": "h"}, {"measurement": "time to restoration of kidney function after transplantation", "setting": "transplanted kidney; second group: 50 μg/kg 2 days pre-op. and every other day", "value": "≤ 10", "unit": "h"}, {"measurement": "retained level of T-helper and T-killer cells relative to normal value", "setting": "[1]", "value": 30, "unit": "%"}]}
